Data published in the supplement of paper PMC12613149.

Columns and labels:
[1] = reversed-phase LC retention time (C18, 15 min MeOH gradient); higher = more hydrophobic / later elution
[2] = collision cross section (TIMS, N2 drift gas) of the primary ion; higher = larger gas-phase ion size
[3] = ionization mode: ESI-, ion species: [M-H]-
[4] = ionization mode: ESI+, ion species: [M+H]+
[5] = ionization mode: ESI+, ion species: [M]+

Row | SMILES | reversed-phase LC retention time [1, 3] [min] | collision cross section [2, 3] [Å²] | reversed-phase LC retention time [1, 4] [min] | collision cross section [2, 4] [Å²] | further results
1 | CC(C)(c1ccccc1)c1ccc(O)cc1 [4-Cumylphenol] | 15.7 | 156.38 | – | – | –
2 | CCOC1Oc2ccc(OS(C)(=O)=O)cc2C1(C)C (configuration not stated) [Ethofumesate] | – | – | 13.8 | 166.62 | –
3 | CNC(=O)Oc1cccc2c1OC(C)(C)C2 [Carbofuran] | – | – | 11.7 | 147.19 | –
4 | CC[n+]1ccn(C)c1 [1-Ethyl-3-methyl-imidazolium] | – | – | – | – | reversed-phase LC retention time [1, 5]: 0.99 min; collision cross section [2, 5]: 115.07 Å²
5 | CN(C)CCC=C1c2ccccc2CCc2ccccc21 [Amitriptyline] | – | – | 13.1 | 167.84 | –
6 | N#Cc1nn(-c2c(Cl)cc(C(F)(F)F)cc2Cl)c(N)c1S(=O)C(F)(F)F (configuration not stated) [Fipronil] | 15.6 | 177.2 | – | – | –
